Results published in US10983109B2, “Compositions and methods for treating B-lymphoid malignancies” (The Children's Hospital of Philadelphia, priority 2013, dated 2021).

What was measured:
Format in all cases: cell-based, mouse
[1] = test system: Src family tyrosine kinases (SFTKs); experiment: Western blotting with phospho-specific antibodies of MYC5 cells expressing WT or MUT CD19 treated with SU6656
Protocol: (§1) FIG. 11A provides growth rates of MYC5 tumors expressing either wild type or mutant CD19. FIG. 11B provides immunoblotts of protein lysates obtained from individual tumors in FIG. 11A on day 23. […] Phosphorylation was assessed using Western blotting with phospho-specific antibodies. […] GFP-only-expressing MYC5 cells were used as a control. Cell proliferation was measured using the WST assay at indicated time points.

MYC5/CD19 cells = experiment: WST cell proliferation assay of MYC5/CD19 cells; conditions: CD19mut/PI3K-disabled cells; GFP-only MYC5 cells as control
Protocol: as §1
Proliferation of Myc5-M5 CD19 transduced cells in vitro were determined using cell proliferation reagent WST-1 (Roche Molecular Biochemicals). Cells were seeded at 1×10^3/well in 100 μl of culture medium were incubated for a total of 72 hours. Proliferation status was determined every 24 hours by incubating with 10 μl of the cell proliferation reagent WST-1 for 4 hours. The absorbance of the treated samples in triplicates were measured against a blank control was measured at 440 nM using a Synergy™ 2 microplate reader (BioTek Instruments).

protein synthesis = experiment: Cycloheximide experiment in Pax5- and CD19-reconstituted Myc5 cells; conditions: 1 μg/ml, over 30 minutes
Text: All figures except FIGS. 3E and 3H represent immunoblotting analyses of proteins indicated on the left. Actin was used as a loading control. In bracketed panels of FIG. 3A, whole cell lysates from Myc5 cells expressing HA-tagged wild-type or mutant (“mut”) ITAM were subjected to immune-precipitation with an α-HA antibody followed by immunoblotting with antibody against total Lyn, Tyr396-phospho-Lyn, or another α-HA antibody. In the bottom panels, lysates from the same cells were immunoblotted with antibodies against c-Myc, and β-actin. […] Mean fluorescent intensities (MFI) are shown in each plot. […] CHX was added at the concentration of 1 μg/ml for 7.5-30 minutes. In the bottom panels Myc-specific bands were quantitated by densitometry, normalized to actin, and plotted against time after treatment. Note that different exposures are shown for parental and Pax5/CD19-transduced cells to allow accurate band quantitation. […]
Myc5 stably transduced with either Pax5 or CD19 retroviral construct were seeded at 1×10^6/ml in 50 ml conical tubes received cycloheximide (Sigma) treatment at 1 μg/ml, while stimulation with 95% ethanol (sigma) served as control. […] Protein samples were resolved on 10% SDS-PAGE for Western blot analysis. c-Myc protein levels were quantified by densitometry using ImageJ 1.43 (National Institutes of Health) with quantitated values normalized to β-actin.

Compound: CN(C)S(=O)(=O)c1ccc2c(c1)/C(=C/c1cc3c([nH]1)CCCC3)C(=O)N2 [SU6656]
- phospho-JNK levels [1]: reduced
- cell proliferation (WST assay) (MYC5/CD19 cells): selectively suppressed proliferation

Compound: C[C@@H]1C[C@@H]([C@H](O)CC2CC(=O)NC(=O)C2)C(=O)[C@@H](C)C1 [CHX, cycloheximide]
- Myc levels (protein synthesis): clearly down-regulated
- retrovirally transduced Pax5 or CD19 protein expression (protein synthesis): no observable effects
